Values quoted from earlier work in patent US20240261254A1, “DIHYDROMYRICETIN NANOEMULSION FORMULATIONS AND METHODS FOR FORMING THEM” (Cheers Health, Inc., priority 2018, published 2024).

BCS class (low solubility and permeability): BCS class IV
oral bioavailability (reference [39]): less than 5%
SMILES: O=C1c2c(O)cc(O)cc2O[C@H](c2cc(O)c(O)c(O)c2)[C@H]1O [DHM, dihydromyricetin]
